Target: c-kit (Homo sapiens, UniProt P10721)
Assay: c-kit assays of Examples 40 and 41 (AlphaScreen kinase assays at 10 and 100 μM ATP, 33P-ATP filter assay, M-07e SCF-stimulated proliferation and phosphorylation)

c-kit, sequence (P10721 with tags, fused parts or gaps): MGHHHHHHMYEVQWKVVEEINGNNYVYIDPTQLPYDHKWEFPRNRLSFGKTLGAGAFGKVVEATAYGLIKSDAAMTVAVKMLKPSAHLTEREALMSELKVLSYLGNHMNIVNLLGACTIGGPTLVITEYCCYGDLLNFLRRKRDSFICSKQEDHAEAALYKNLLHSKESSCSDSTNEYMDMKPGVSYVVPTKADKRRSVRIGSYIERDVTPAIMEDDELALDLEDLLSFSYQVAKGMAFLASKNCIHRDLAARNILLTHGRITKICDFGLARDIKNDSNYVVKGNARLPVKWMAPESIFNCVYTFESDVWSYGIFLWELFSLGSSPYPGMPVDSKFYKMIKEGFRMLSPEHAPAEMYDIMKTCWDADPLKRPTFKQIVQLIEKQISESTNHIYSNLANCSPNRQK

IC50, < 1 µM:
Clc1cnc2[nH]cc(Cc3sc(NCc4cccc(N5CCOCC5)n4)nc3Cl)c2c1 [P-0252, [4-Chloro-5-(5-chloro-1H-pyrrolo[2,3-b]pyridin-3-ylmethyl)-thiazol-2-yl]-(6-morpholin-4-yl-pyridin-2-ylmethyl)-amine]
Clc1cnc2[nH]cc(Cc3sc(NCc4c(Cl)cncc4Cl)nc3Cl)c2c1 [P-0253, [4-Chloro-5-(5-chloro-1H-pyrrolo[2,3-b]pyridin-3-ylmethyl)-thiazol-2-yl]-(3,5-dichloro-pyridin-4-ylmethyl)-amine]
N#Cc1cnc2[nH]cc(Cc3ccc(NCc4ccc(Cl)cc4)nc3)c2c1 [P-0257, 3-[6-(4-Chloro-benzylamino)-pyridin-3-ylmethyl]-1H-pyrrolo[2,3-b]pyridine-5-carbonitrile]
CCCS(=O)(=O)Nc1ccc(F)c(CNc2ccc(Cc3c[nH]c4ncccc34)cn2)c1F [P-0258, propane-1-sulfonic acid (2,4-difluoro-3-[5-(1H-pyrrolo[2,3-b]pyridin-3-ylmethyl)-pyridin-2-ylamino]-methyl-phenyl)-amide]
CCCS(=O)(=O)Nc1ccc(F)c(CNc2ccc(Cc3c[nH]c4ncc(Cl)cc34)cn2)c1F [P-0259, Propane-1-sulfonic acid (3-{[5-(5-chloro-1H-pyrrolo[2,3-b]pyridin-3-ylmethyl)-pyridin-2-ylamino]-methyl}-2,4-difluoro-phenyl)-amide]
Clc1ccc(CNc2ncc(Cc3c[nH]c4ncc(Cl)cc34)cn2)cc1 [P-0260, (4-Chloro-benzyl)-[5-(5-chloro-1H-pyrrolo[2,3-b]pyridin-3-ylmethyl)-pyrimidin-2-yl]-amine]
FC(F)(F)c1ccccc1CNc1ncc(Cc2c[nH]c3ncc(Cl)cc23)cn1 [P-0262, [5-(5-Chloro-1H-pyrrolo[2,3-b]pyridin-3-ylmethyl)-pyrimidin-2-yl]-(2-trifluoromethyl-benzyl)-amine]
Clc1cnc2[nH]cc(Cc3cnc(NCc4ccccc4Cl)nc3)c2c1 [P-0263, (2-Chloro-benzyl)-[5-(5-chloro-1H-pyrrolo[2,3-b]pyridin-3-ylmethyl)-pyrimidin-2-yl]-amine]
Fc1ccccc1CNc1ncc(Cc2c[nH]c3ncc(Cl)cc23)cn1 [P-0264, [5-(5-Chloro-1H-pyrrolo[2,3-b]pyridin-3-ylmethyl)-pyrimidin-2-yl]-(2-fluoro-benzyl)-amine]
Fc1ccc(CNc2ncc(Cc3c[nH]c4ncc(Cl)cc34)cn2)c(F)c1 [P-0265, [5-(5-Chloro-1H-pyrrolo[2,3-b]pyridin-3-ylmethyl)-pyrimidin-2-yl]-(2,4-difluoro-benzyl)-amine]
FC(F)(F)c1ccc(CNc2ncc(Cc3c[nH]c4ncc(Cl)cc34)cn2)cc1 [P-0266, [5-(5-Chloro-1H-pyrrolo[2,3-b]pyridin-3-ylmethyl)-pyrimidin-2-yl]-(4-trifluoromethyl-benzyl)-amine]
Fc1ccc(F)c(CNc2ncc(Cc3c[nH]c4ncc(Cl)cc34)cn2)c1 [P-0267, [5-(5-Chloro-1H-pyrrolo[2,3-b]pyridin-3-ylmethyl)-pyrimidin-2-yl]-(2,5-difluoro-benzyl)-amine]
FC(F)(F)c1cccc(CNc2ncc(Cc3c[nH]c4ncc(Cl)cc34)cn2)c1 [P-0268, [5-(5-Chloro-1H-pyrrolo[2,3-b]pyridin-3-ylmethyl)-pyrimidin-2-yl]-(3-trifluoromethyl-benzyl)-amine]
N#Cc1cnc2[nH]cc(Cc3ccc(NCc4ccc(C(F)(F)F)cc4)nc3)c2c1 [P-0269, 3-[6-(4-Trifluoromethyl-benzylamino)-pyridin-3-ylmethyl]-1H-pyrrolo[2,3-b]pyridine-5-carbonitrile]
Fc1ccccc1CNc1ccc(Cc2c[nH]c3ncc(Cl)cc23)cn1 [P-0270, [5-(5-Chloro-1H-pyrrolo[2,3-b]pyridin-3-ylmethyl)-pyridin-2-yl]-(2-fluoro-benzyl)-amine]
N#Cc1cnc2[nH]cc(Cc3ccc(NCc4ccccc4F)nc3)c2c1 [P-0271, 3-[6-(2-Fluoro-benzylamino)-pyridin-3-ylmethyl]-1H-pyrrolo[2,3-b]pyridine-5-carbonitrile]
Cc1cnc2[nH]cc(Cc3ccc(NCc4ccccc4F)nc3)c2c1 [P-0272, (2-Fluoro-benzyl)-[5-(5-methyl-1H-pyrrolo[2,3-b]pyridin-3-ylmethyl)-pyridin-2-yl]-amine]
N#Cc1cnc2[nH]cc(Cc3ccc(NCc4ccc(C(F)(F)F)nc4)nc3)c2c1 [P-0273, 3-{6-[(6-Trifluoromethyl-pyridin-3-ylmethyl)-amino]-pyridin-3-ylmethyl}-1H-pyrrolo[2,3-b]pyridine-5-carbonitrile]
N#Cc1cnc2[nH]cc(Cc3ccc(NCc4ccccc4C(F)(F)F)nc3)c2c1 [P-0274, 3-[6-(2-Trifluoromethyl-benzylamino)-pyridin-3-ylmethyl]-1H-pyrrolo[2,3-b]pyridine-5-carbonitrile]
FC(F)(F)c1ccccc1CNc1ccc(Cc2c[nH]c3ncc(Cl)cc23)cn1 [P-0275, [5-(5-Chloro-1H-pyrrolo[2,3-b]pyridin-3-ylmethyl)-pyridin-2-yl]-(2-trifluoromethyl-benzyl)-amine]
Cc1cnc2[nH]cc(Cc3ccc(NCc4ccccc4C(F)(F)F)nc3)c2c1 [P-0276, [5-(5-Methyl-1H-pyrrolo[2,3-b]pyridin-3-ylmethyl)-pyridin-2-yl]-(2-trifluoromethyl-benzyl)-amine]
N#Cc1cnc2[nH]cc(Cc3ccc(NCc4c(F)cccc4F)nc3)c2c1 [P-0277, 3-[6-(2,6-Difluoro-benzylamino)-pyridin-3-ylmethyl]-1H-pyrrolo[2,3-b]pyridine-5-carbonitrile]
Fc1cccc(F)c1CNc1ccc(Cc2c[nH]c3ncc(Cl)cc23)cn1 [P-0278, [5-(5-Chloro-1H-pyrrolo[2,3-b]pyridin-3-ylmethyl)-pyridin-2-yl]-(2,6-difluoro-benzyl)-amine]
Cc1cnc2[nH]cc(Cc3ccc(NCc4ccccc4Cl)nc3)c2c1 [P-0279, (2-Chloro-benzyl)-[5-(5-methyl-1H-pyrrolo[2,3-b]pyridin-3-ylmethyl)-pyridin-2-yl]-amine]
Clc1cnc2[nH]cc(Cc3ccc(NCc4ccccc4Cl)nc3)c2c1 [P-0280, (2-Chloro-benzyl)-[5-(5-chloro-1H-pyrrolo[2,3-b]pyridin-3-ylmethyl)-pyridin-2-yl]-amine]
N#Cc1cnc2[nH]cc(Cc3ccc(NCc4ccccc4Cl)nc3)c2c1 [P-0281, 3-[6-(2-Chloro-benzylamino)-pyridin-3-ylmethyl]-1H-pyrrolo[2,3-b]pyridine-5-carbonitrile]
COc1ccc(CNc2ccc(Cc3c[nH]c4ncc(C)cc34)cn2)cn1 [P-0282, (6-Methoxy-pyridin-3-ylmethyl)-[5-(5-methyl-1H-pyrrolo[2,3-b]pyridin-3-ylmethyl)-pyridin-2-yl]-amine]
COc1ccc(CNc2ccc(Cc3c[nH]c4ncc(Cl)cc34)cn2)cn1 [P-0283, [5-(5-Chloro-1H-pyrrolo[2,3-b]pyridin-3-ylmethyl)-pyridin-2-yl]-(6-methoxy-pyridin-3-ylmethyl)-amine]
COc1ccc(CNc2ccc(Cc3c[nH]c4ncc(C#N)cc34)cn2)cn1 [P-0284, 3-{6-[(6-Methoxy-pyridin-3-ylmethyl)-amino]-pyridin-3-ylmethyl}-1H-pyrrolo[2,3-b]pyridine-5-carbonitrile]
COc1ncccc1CNc1ccc(Cc2c[nH]c3ncc(C)cc23)cn1 [P-0285, (2-Methoxy-pyridin-3-ylmethyl)-[5-(5-methyl-1H-pyrrolo[2,3-b]pyridin-3-ylmethyl)-pyridin-2-yl]-amine]
COc1ncccc1CNc1ccc(Cc2c[nH]c3ncc(Cl)cc23)cn1 [P-0286, [5-(5-Chloro-1H-pyrrolo[2,3-b]pyridin-3-ylmethyl)-pyridin-2-yl]-(2-methoxy-pyridin-3-ylmethyl)-amine]
COc1ncccc1CNc1ccc(Cc2c[nH]c3ncc(C#N)cc23)cn1 [P-0287, 3-{6-[(2-Methoxy-pyridin-3-ylmethyl)-amino]-pyridin-3-ylmethyl}-1H-pyrrolo[2,3-b]pyridine-5-carbonitrile]
CCOc1ccccc1CNc1ccc(Cc2c[nH]c3ncccc23)cn1 [P-0288, (2-Ethoxy-benzyl)-[5-(1H-pyrrolo[2,3-b]pyridin-3-ylmethyl)-pyridin-2-yl]-amine]
Fc1ccc(C(F)(F)F)cc1CNc1ncc(Cc2c[nH]c3ncc(Cl)cc23)cn1 [P-0289, [5-(5-Chloro-1H-pyrrolo[2,3-b]pyridin-3-ylmethyl)-pyrimidin-2-yl]-(2-fluoro-5-trifluoromethyl-benzyl)-amine]
Fc1ccc(CNc2ncc(Cc3c[nH]c4ncc(Cl)cc34)s2)cc1 [P-0290, [5-(5-Chloro-1H-pyrrolo[2,3-b]pyridin-3-ylmethyl)-thiazol-2-yl]-(4-fluoro-benzyl)-amine]
Fc1ccc(C(F)(F)F)cc1CNc1ncc(Cc2c[nH]c3ncccc23)cn1 [P-0291, (2-Fluoro-5-trifluoromethyl-benzyl)-[5-(1H-pyrrolo[2,3-b]pyridin-3-ylmethyl)-pyrimidin-2-yl]-amine]
Fc1cc(CNc2ncc(Cc3c[nH]c4ncccc34)cn2)cc(C(F)(F)F)c1 [P-0294, (3-Fluoro-5-trifluoromethyl-benzyl)-[5-(1H-pyrrolo[2,3-b]pyridin-3-ylmethyl)-pyrimidin-2-yl]-amine]
